Test results taken from PubChem BioAssay (NCI).
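Values below derive from 48-hour exposures of cells grown in 96-well plates, with endpoints linearly interpolated between the two concentrations bracketing the appropriate inhibition level. GI50: concentration for 50% inhibition of growth. At the TGI there is no net growth.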

How the values were obtained:
Test in all cases: DTP human tumour cell line panel, 48 h
MDA-MB-435 = test system: MDA-MB-435
MDA-N = test system: MDA-N
DU-145 prostate = test system: DU-145 prostate
KM20L2 colon = test system: KM20L2 colon
LXFL 529 NSCLC = test system: LXFL 529 NSCLC
HOP-18 NSCLC = test system: HOP-18 NSCLC
DLD-1 colon = test system: DLD-1 colon
M19-MEL melanoma = test system: M19-MEL melanoma
RXF-631 renal = test system: RXF-631 renal

| SMILES | TGI (KM20L2 colon) [µM] | TGI (LXFL 529 NSCLC) [µM] | TGI (HOP-18 NSCLC) [µM] | TGI (DLD-1 colon) [µM] | TGI (M19-MEL melanoma) [µM] | TGI (RXF-631 renal) [µM] | other results |
| --- | --- | --- | --- | --- | --- | --- | --- |
| CCCCCCCCCCCCCCN |  |  |  |  |  |  | TGI (MDA-MB-435): > 100 µM; TGI (MDA-N): > 100 µM; TGI (DU-145 prostate): > 100 µM |
| O=C(c1ccccc1)C1CCCCN1C(=O)c1ccccc1 (centres undefined) | > 100 | > 100 | > 100 | > 100 | > 100 |  |  |
| COc1ccc(NC(=O)C(=O)Cc2nc3ccc([N+](=O)[O-])cc3[nH]c2=O)c(OC)c1 | > 100 | > 100 | > 100 | > 100 | > 100 |  |  |
| CS(=O)(=O)OCCN1CCN(C(=O)c2cccc3c(Nc4ccc(S(=O)(=O)N=C(N)N)cc4)c4ccccc4nc23)CC1 | > 100 |  |  | > 100 | > 100 |  |  |
| CCOC(=O)/C(O)=C/c1cc(OC)cc(=O)o1 | > 100 | > 100 | > 100 | > 100 | > 100 |  |  |
| CC1OC(OCC2OC(Oc3c(-c4ccc(O)cc4)oc4cc(O)cc(O)c4c3=O)C(OC3OC(C)C(O)C(O)C3O)C(O)C2O)C(O)C(O)C1O (centres undefined) | > 100 | > 100 | > 100 | > 100 | > 100 | > 100 |  |
| COc1cc(/C=C\c2ccc(C)cc2)cc(OC)c1OC | 0.000535 | 46.1 |  | > 100 | > 100 |  | TGI (MDA-MB-435): 0.0672 µM; TGI (MDA-N): 0.00521 µM; TGI (DU-145 prostate): 0.0843 µM; GI50 (M19-MEL melanoma): 0.0127 µM |
| COC[C@@H](N=CN1CCc2cc(OC)c(OC)cc2[C@@H]1C)C(C)(C)C | > 100 | > 100 | > 100 | > 100 | > 100 | > 100 |  |
| CC1(C)C(=O)C(C)(C)C1=NN | > 100 | > 100 |  | > 100 | > 100 |  |  |
| Cc1ccc(-c2cc(-c3ccco3)c(C#N)c(=O)[nH]2)cc1 | > 100 | > 100 | > 100 | > 100 | > 100 |  |  |
| CCCNCCCC(NC(C)=O)C(=O)NCc1ccccc1 (centres undefined) | > 100 | > 100 |  | > 100 | > 100 | > 100 |  |
| CC(=O)NNc1nc(C)c(C(=O)NNC(=O)C(=O)Nc2c(C)cccc2C)s1 | > 100 | > 100 | > 100 | > 100 | 79.7 | > 100 |  |
| CN(C)c1ccc([O-])cc1.CN(C)c1ccc([O-])cc1.CN(C)c1ccc([O-])cc1.CN(C)c1ccc([O-])cc1.[Ti+4] | > 100 | > 100 | > 100 | > 100 | > 100 | > 100 | GI50 (KM20L2 colon): > 100 µM; GI50 (LXFL 529 NSCLC): 25.9 µM; GI50 (RXF-631 renal): > 100 µM; GI50 (HOP-18 NSCLC): > 100 µM; GI50 (DLD-1 colon): 91 µM; GI50 (M19-MEL melanoma): > 100 µM |
| Clc1ccc(Cc2nc3ccccc3s2)c(Cl)c1 | 52 | 31.1 | 31.4 | 29 | 30.5 | 30.1 |  |
| O=C(O)C1C2CCC(O2)C1C(=O)N1CCCCC1 (centres undefined) | 13.1 | 16.9 | 36.5 | 39.7 | 21.9 | 51.6 |  |
| COC(=O)C(C(=O)C(=O)Nc1ccc(C(F)(F)F)cc1[N+](=O)[O-])c1csc(-n2nc(-c3ccccc3)cc2-c2ccccc2)n1 (centres undefined) | > 100 | > 100 |  |  | > 100 |  |  |
| C1C[OH+]CC[OH+]CCNCC[OH+]CC[OH+]CCN1.[Cl-].[Pt+4] | > 100 | > 100 | > 100 | > 100 |  |  | GI50 (KM20L2 colon): > 100 µM; GI50 (LXFL 529 NSCLC): 63.7 µM; GI50 (HOP-18 NSCLC): > 100 µM; GI50 (DLD-1 colon): > 100 µM |
| COC1=CC(=O)C2C(C1=O)[C@@H]1c3ccccc3C[C@H]21 (some centres undefined) |  |  |  | > 100 | > 100 | > 100 |  |
| COc1ccc(-c2oc3c(OC)c(OC)c(OC)c(O)c3c(=O)c2OC)cc1OC |  |  |  |  |  |  | TGI (MDA-MB-435): 32.9 µM; TGI (MDA-N): 30 µM; TGI (DU-145 prostate): > 100 µM |
| CCCCS(=O)CCC(N)C(=O)O (centres undefined) |  |  |  |  |  |  | TGI (MDA-N): > 100 µM; TGI (DU-145 prostate): > 100 µM |
| CC(C)C1(O)C(c2ccccc2)=C(c2ccccc2)C(c2ccccc2)=C1c1ccccc1 | 23.3 | 51.9 | 52.7 | > 100 |  | 51.3 |  |
| CCCCc1c2c(nc3c1CCc1cc4cc5c(nc4nc1-3)-c1nc3c(c(CCCC)c1CC5)CCCC3)CCCC2 | 69.3 | > 100 |  | > 100 | > 100 |  |  |
| CC1CC#CCOC(=O)CCCC1=O (centres undefined) | > 100 | > 100 | > 100 | > 100 | > 100 |  |  |
| CO/C(=N\N=C\c1cccc(Cl)c1)c1ccncc1 |  |  |  |  |  |  | TGI (MDA-MB-435): > 10 µM; TGI (MDA-N): > 10 µM; TGI (DU-145 prostate): > 10 µM |
| NC1CCCCC1.[O]=[Ge].[O]=[Ge].[O]=[Ge][OH].[O]=[Ge][OH] | > 100 | > 100 | > 100 | > 100 | > 100 |  | GI50 (LXFL 529 NSCLC): > 100 µM |
| NCCCOCC(=O)O | > 100 | > 100 |  |  | > 100 |  |  |
| C=C(CCCCCCCCC)CC(=O)SCCNC(=O)CCNC(=O)C(O)C(C)(C)COP(=O)(O)OP(=O)(O)OCC1OC(n2cnc3c(N)ncnc32)C(O)C1OP(=O)(O)O (centres undefined) | > 100 | > 100 | > 100 | > 100 | 87.8 | > 100 | TGI (MDA-MB-435): 67.7 µM; TGI (MDA-N): > 76.6 µM; TGI (DU-145 prostate): > 100 µM |
